Results published in patent publication US8952024B2, “Herbicidal pyrimidone derivatives” (E I du Pont de Nemours and Company, priority 2009, dated 2015).

Legend:
Assay in all cases: Test B pre-/postemergence plant response
Format in all cases: in vivo
kochia (Kochia scoparia) = details: Postemergence; for Plant response rating, Kochia: scale 0 (no effect) to 100 (complete control)
Procedure, shortened: (§1)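 Visual ratings on a 0–100 scale (100 = complete control) were made versus untreated controls 13–15 days after treatment in a greenhouse. Compounds in surfactant-containing non-phytotoxic solvent were applied preemergence to seeds in loam–sand blend or postemergence to 1- to 4-leaf plants (2–18 cm).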

[1] = system: yellow nutsedge (Cyperus esculentus)
Procedure, shortened: as §1

[2] = system: velvetleaf (Abutilon theophrasti)
Procedure, shortened: as §1

[3] = system: pigweed (Amaranthus retroflexus)
Procedure, shortened: as §1

[4] = system: lambsquarters (Chenopodium album)
Procedure, shortened: as §1

[5] = system: wheat (Triticum aestivum)
Procedure, shortened: as §1

[6] = system: woolly cupgrass (Eriochloa villosa)
Procedure, shortened: as §1

wild oat (Avena fatua) = system: wild oat (Avena fatua)
Procedure, shortened: as §1

[7] = system: downy bromegrass (Bromus tectorum)
Procedure, shortened: as §1

[8] = system: blackgrass (Alopecurus myosuroides)
Procedure, shortened: as §1

[9] = system: goosegrass (Eleusine indica)
Procedure, shortened: as §1

[10] = system: johnsongrass (Sorghum halepense)
Procedure, shortened: as §1

[11] = system: ragweed (common ragweed, Ambrosia elatior)
Procedure, shortened: as §1

corn (Zea mays) = system: corn (Zea mays)
Procedure, shortened: as §1

[12] = system: Italian ryegrass (Lolium multiflorum)
Procedure, shortened: as §1

soybean (Glycine max) = system: soybean (Glycine max)
Procedure, shortened: as §1

[13] = system: large crabgrass (Digitaria sanguinalis)
Procedure, shortened: as §1

[14] = system: Surinam grass (Brachiaria decumbens)
Procedure, shortened: as §1

[15] = 250 g ai/ha, Preemergence, 0 to 100 scale
[16] = Postemergence, 62 g ai/ha, scale 0 (no effect) to 100 (complete control), 13 to 15 days
[17] = Postemergence, 125 g ai/ha, visual rating after 13 to 15 days, scale 0 (no effect) to 100 (complete control)
[18] = Preemergence, 31 g ai/ha, scale 0 to 100 (0 no effect, 100 complete control)
[19] = Preemergence, 125 g ai/ha, 0 to 100 scale
[20] = Postemergence, 250 g ai/ha, scale 0 to 100
[21] = Preemergence, 62 g ai/ha, scale 0 to 100, 0 no effect, 100 complete control
[22] = Postemergence, 31 g ai/ha, scale 0 to 100 (0 no effect, 100 complete control)

Cc1cc(F)ccc1-n1c(-c2ccccc2)ncc(C(=O)C2=C(O)CCCC2=O)c1=O [Compound 48]
75: Plant response rating, Velvetleaf [2, 18] | Cupgrass, Woolly plant response rating [6, 19] | Plant response rating, Crabgrass, Large [13, 18]
60: Plant response rating, Nutsedge, Yellow [1, 17]
5: Plant response rating, Blackgrass [8, 15] | Plant response rating, Blackgrass [8, 16] | Plant response rating, Ryegrass, Italian [12, 16]
50: Plant response rating, Oat, Wild (wild oat (Avena fatua); [16]) | Plant response rating, Bromegrass, Downy [7, 17]
65: Plant response rating, Ragweed [11, 18] | Plant response rating, Corn (corn (Zea mays); [22])
45: Plant response rating, Nutsedge, Yellow [1, 16] | Plant response rating, Bromegrass, Downy [7, 15] | Plant response rating, Johnsongrass [10, 21]
98: Plant response rating, Kochia (kochia (Kochia scoparia); 62 g ai/ha, 13 to 15 days) | Plant response rating, Velvetleaf [2, 17] | Goosegrass plant response rating [9, 20] | Plant response rating, Goosegrass [9, 18] | Plant response rating, Johnsongrass [10, 15] | Plant response rating, Soybean (soybean (Glycine max); [17])
95: Plant response rating, Lambsquarters [4, 16] | Plant response rating, Cupgrass, Woolly [6, 15] | Cupgrass, Woolly plant response rating [6, 20] | Plant response rating, Goosegrass [9, 17] | Johnsongrass plant response rating [10, 20] | Plant response rating, Ragweed [11, 15] | Plant response rating, Soybean (soybean (Glycine max); [16]) | Plant response rating, Crabgrass, Large [13, 17] | Crabgrass, Large plant response rating [13, 20] | Plant response rating, Surinam Grass [14, 17]
30: Blackgrass plant response rating [8, 20] | Plant response rating, Ryegrass, Italian [12, 17]
25: Plant response rating, Bromegrass, Downy [7, 16]
10: Plant response rating, Wheat [5, 17] | Plant response rating, Cupgrass, Woolly [6, 18] | Plant response rating, Cupgrass, Woolly [6, 21] | Plant response rating, Bromegrass, Downy [7, 22]
15: Plant response rating, Oat, Wild (wild oat (Avena fatua); [15])
90: Plant response rating, Nutsedge, Yellow [1, 15] | Plant response rating, Cupgrass, Woolly [6, 17] | Johnsongrass plant response rating [10, 19] | Plant response rating, Ragweed [11, 17] | Ragweed plant response rating [11, 19] | Plant response rating, Crabgrass, Large [13, 21]
0: Plant response rating, Wheat [5, 15] | Plant response rating, Wheat [5, 16] | Plant response rating, Wheat [5, 18] | Wheat plant response rating [5, 19] | Plant response rating, Oat, Wild (wild oat (Avena fatua); [18]) | Oat, Wild plant response rating (wild oat (Avena fatua); [19]) | Plant response rating, Bromegrass, Downy [7, 18] | Plant response rating, Bromegrass, Downy [7, 21] | Bromegrass, Downy plant response rating [7, 19] | Plant response rating, Blackgrass [8, 22] | Plant response rating, Blackgrass [8, 18] | Plant response rating, Blackgrass [8, 21] | Blackgrass plant response rating [8, 19] | Plant response rating, Corn (corn (Zea mays); [15]) | Plant response rating, Corn (corn (Zea mays); [18]) | Plant response rating, Corn (corn (Zea mays); [21]) | Corn plant response rating (corn (Zea mays); [19]) | Plant response rating, Ryegrass, Italian [12, 15] | Plant response rating, Ryegrass, Italian [12, 18] | Ryegrass, Italian plant response rating [12, 19] | Plant response rating, Soybean (soybean (Glycine max); [18]) | Soybean plant response rating (soybean (Glycine max); [19])
85: Nutsedge, Yellow plant response rating [1, 19] | Plant response rating, Velvetleaf [2, 16] | Plant response rating, Pigweed [3, 16] | Plant response rating, Oat, Wild (wild oat (Avena fatua); [17]) | Plant response rating, Goosegrass [9, 16] | Plant response rating, Ragweed [11, 16] | Plant response rating, Corn (corn (Zea mays); [17]) | Corn plant response rating (corn (Zea mays); [20]) | Plant response rating, Crabgrass, Large [13, 22] | Plant response rating, Crabgrass, Large [13, 16] | Plant response rating, Surinam Grass [14, 16]
70: Bromegrass, Downy plant response rating [7, 20] | Plant response rating, Corn (corn (Zea mays); [16])
80: Plant response rating, Cupgrass, Woolly [6, 22] | Plant response rating, Cupgrass, Woolly [6, 16] | Plant response rating, Johnsongrass [10, 16] | Plant response rating, Johnsongrass [10, 17] | Plant response rating, Surinam Grass [14, 18]
100: Plant response rating, Kochia (kochia (Kochia scoparia); 125 g ai/ha, visual rating after 13 to 15 days) | Kochia plant response rating (kochia (Kochia scoparia); 250 g ai/ha, scale 0 to 100) | Plant response rating, Velvetleaf [2, 15] | Velvetleaf plant response rating [2, 19] | Plant response rating, Pigweed [3, 15] | Plant response rating, Pigweed [3, 17] | Plant response rating, Pigweed [3, 18] | Pigweed plant response rating [3, 19] | Plant response rating, Lambsquarters [4, 15] | Plant response rating, Lambsquarters [4, 17] | Lambsquarters plant response rating [4, 20] | Plant response rating, Lambsquarters [4, 18] | Plant response rating, Lambsquarters [4, 21] | Lambsquarters plant response rating [4, 19] | Plant response rating, Goosegrass [9, 15] | Goosegrass plant response rating [9, 19] | Plant response rating, Crabgrass, Large [13, 15] | Crabgrass, Large plant response rating [13, 19] | Plant response rating, Surinam Grass [14, 15] | Surinam Grass plant response rating [14, 19]
20: Plant response rating, Nutsedge, Yellow [1, 18] | Plant response rating, Blackgrass [8, 17] | Plant response rating, Johnsongrass [10, 18] | Plant response rating, Soybean (soybean (Glycine max); [15])
